Data published in patent US20240228488A1 (TAKEDA PHARMACEUTICAL COMPANY LIMITED, priority 2021, published 2024).

These compounds were tested against human activated kallikrein enzyme (Homo sapiens, UniProt P03952) (assay: Plasma kallikrein inhibition, fluorogenic PFR-AMC substrate, 500 pM activated kallikrein format). Settings: 500 pM activated kallikrein, 300 uM PFR-AMC, 30 min preincubation, 10 min reaction; read-out: Primary Dose Response Assay: Average EC50.
Type: biochemical
Method in brief: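 500 pM enz + cpd, 30 min RT preinc; start w/ PFR-AMC 300 uM; 10 min RT; Ex380/Em460. Buffer: Tris 20 mM pH 7.5, EDTA 1 mM, NaCl 150 mM, PEG-400 0.1%, Triton 0.1%. EC50.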

Sequence of human activated kallikrein enzyme (P03952 391-638 limits assumed): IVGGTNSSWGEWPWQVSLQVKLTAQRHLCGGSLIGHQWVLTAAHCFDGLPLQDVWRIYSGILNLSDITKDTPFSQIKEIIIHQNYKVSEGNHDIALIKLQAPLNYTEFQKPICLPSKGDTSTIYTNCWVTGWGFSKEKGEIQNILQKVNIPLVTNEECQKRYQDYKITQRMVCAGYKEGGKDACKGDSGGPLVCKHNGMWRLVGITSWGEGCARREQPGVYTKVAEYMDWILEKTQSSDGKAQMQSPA
Sequence of human activated kallikrein enzyme (P03952 20-390 partner limits assumed): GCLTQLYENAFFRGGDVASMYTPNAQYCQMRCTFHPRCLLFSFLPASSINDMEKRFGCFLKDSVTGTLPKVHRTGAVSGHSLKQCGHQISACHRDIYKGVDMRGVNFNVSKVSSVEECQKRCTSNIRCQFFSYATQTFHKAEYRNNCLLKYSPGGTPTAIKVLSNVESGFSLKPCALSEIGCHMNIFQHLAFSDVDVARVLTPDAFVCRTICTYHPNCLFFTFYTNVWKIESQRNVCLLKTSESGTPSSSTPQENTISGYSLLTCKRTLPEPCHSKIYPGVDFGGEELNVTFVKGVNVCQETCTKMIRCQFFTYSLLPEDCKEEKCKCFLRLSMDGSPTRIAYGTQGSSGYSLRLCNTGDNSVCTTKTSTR

SMILES	EC50 [µM]
O=C(Nc1nccc2nn(Cc3cn4cc(C5CC5)ccc4n3)cc12)[C@H]1C[C@@H]1c1cccc(Cl)c1 [Example 580, (1S,2S)-2-(3-chlorophenyl)-N-(2-((6-cyclopropylimidazo[1,2-a]pyridin-2-yl)methyl)-2H-pyrazolo[4,3-c]pyridin-4-yl)cyclopropane-1-carboxamide]	0.001 to 0.01
O=C(Nc1cncnc1NCc1cn2cc(C3CC3)ccc2n1)[C@H]1C[C@@H]1c1cccc(Cl)c1 (racemic) [Example 78, rac-(1S*,2S*)-2-(3-chlorophenyl)-N-(4-(((6-cyclopropylimidazo[1,2-a]pyridin-2-yl)methyl)amino)pyrimidin-5-yl)cyclopropane-1-carboxamide]	0.1 to 1
O=C(Nc1cc(NCc2cn3cc(C4CC4)cc(N4CC(=O)N(CC(F)(F)F)C4=O)c3n2)ncn1)[C@H]1C[C@@H]1c1cccc(Cl)c1 [Example 398, (1S,2S)-2-(3-chlorophenyl)-N-(6-(((6-cyclopropyl-8-(2,4-dioxo-3-(2,2,2-trifluoroethyl)imidazolidin-1-yl)imidazo[1,2-a]pyridin-2-yl)methyl)amino)pyrimidin-4-yl)cyclopropane-1-carboxamide]	0.001 to 0.01
O=C(Nc1cc(NCc2cn3cc(C4CC4)ccc3n2)nc(N2CCCC2)n1)[C@@H]1C[C@H]1c1cccc(Cl)c1 (racemic) [Example 105, rac-(1S*,2S*)-2-(3-chlorophenyl)-N-(6-(((6-cyclopropylimidazo[1,2-a]pyridin-2-yl)methyl)amino)-2-(pyrrolidin-1-yl)pyrimidin-4-yl)cyclopropane-1-carboxamide]	0.1 to 1
O=C(Nc1cc(NCc2cn3cc(C4CC4)ccc3n2)ccn1)[C@@H]1C[C@]12C(=O)Nc1ccc(Cl)cc12 (racemic) [Example 514, rac-(1R*,2S*)-5′-chloro-N-(4-(((6-cyclopropylimidazo[1,2-a]pyridin-2-yl)methyl)amino)pyridin-2-yl)-2′-oxospiro[cyclopropane-1,3′-indoline]-2-carboxamide]	0.01 to 0.1
O=C(O)c1cc(C2CC2)cn2cc(CNc3cc(NC(=O)[C@H]4C[C@@H]4c4cccc(Cl)c4)ncn3)nc12 [Example 298, 2-(((6-((1S,2S)-2-(3-chlorophenyl)cyclopropane-1-carboxamido)pyrimidin-4-yl)amino)methyl)-6-cyclopropylimidazo[1,2-a]pyridine-8-carboxylic acid]	0.001 to 0.01
Cc1ccnc([C@H]2C[C@@H]2C(=O)Nc2nncc(OCc3cn4cc(C5CC5)cc(N5CC(=O)N(C)C5=O)c4n3)n2)n1 [Example 671, (1S,2S)—N-(5-((6-cyclopropyl-8-(3-methyl-2,4-dioxoimidazolidin-1-yl)imidazo[1,2-a]pyridin-2-yl)methoxy)-1,2,4-triazin-3-yl)-2-(4-methylpyrimidin-2-yl)cyclopropane-1-carboxamide]	< 0.001
O=C(Nc1cc(NCc2cn3cc(C4CC4)ccc3n2)ccn1)[C@@H]1C[C@]12CCc1ccc(Cl)cc12 (racemic) [Example I-271, rac-(1S*,2S*)-6′-chloro-N-(4-(((6-cyclopropylimidazo[1,2-a]pyridin-2-yl)methyl)amino)pyridin-2-yl)-2′,3′-dihydrospiro[cyclopropane-1,1′-indene]-2-carboxamide]	< 0.001
C[C@H]1[C@H](C(=O)Nc2cc(NCc3cn4cc(C5CC5)ccc4n3)ncn2)[C@H]1c1cccc(Cl)c1 (single isomer, unassigned) [Example 506, (1R*,2R*,3S*)-2-(3-chlorophenyl)-N-(6-(((6-cyclopropylimidazo[1,2-a]pyridin-2-yl)methyl)amino)pyrimidin-4-yl)-3-methylcyclopropane-1-carboxamide]	> 6
CCC(=O)O[C@H]1C[C@H](c2cn3cc(C4CC4)cc(N4CC(=O)N(C)C4=O)c3n2)N(c2cc(NC(=O)[C@H]3C[C@@H]3c3nccc(C)n3)ncn2)C1 [Example 425, (3S,5R)-5-(6-cyclopropyl-8-(3-methyl-2,4-dioxoimidazolidin-1-yl)imidazo[1,2-a]pyridin-2-yl)-1-(6-((1S,2S)-2-(4-methylpyrimidin-2-yl)cyclopropane-1-carboxamido)pyrimidin-4-yl)pyrrolidin-3-yl propionate]	0.01 to 0.1
COC(=O)c1cc(C2CC2)cn2cc(CNc3cc(NC(=O)[C@H]4C[C@@H]4c4cccc(Cl)c4)ncn3)nc12 [Example I-146, methyl 2-(((6-((1S,2S)-2-(3-chlorophenyl)cyclopropane-1-carboxamido)pyrimidin-4-yl)amino)methyl)-6-cyclopropylimidazo[1,2-a]pyridine-8-carboxylate]	0.001 to 0.01
O=C(Nc1cc(NCc2cn3cc(C4CC4)ccc3n2)ccn1)[C@H]1C[C@@H]1c1ccnc(Cl)c1 (racemic) [Example I-220, rac-(1S*,2S*)-2-(2-chloropyridin-4-yl)-N-(4-(((6-cyclopropylimidazo[1,2-a]pyridin-2-yl)methyl)amino)pyridin-2-yl)cyclopropane-1-carboxamide]	0.01 to 0.1
C[S+]([O-])c1nc(NCc2cn3cc(C4CC4)ccc3n2)cc(NC(=O)[C@H]2C[C@@H]2c2cccc(Cl)c2)n1 (relative stereo) [Example 109, rac-(1S*,2S*)-2-(3-chlorophenyl)-N-(6-(((6-cyclopropylimidazo[1,2-a]pyridin-2-yl)methyl)amino)-2-(methylsulfinyl)pyrimidin-4-yl)cyclopropane-1-carboxamide]	0.001 to 0.01
Cc1ccnc([C@H]2C[C@@H]2C(=O)Nc2cc(NCc3cn4cc(C5CC5)cc(N5CC(=O)N(C)C5=O)c4n3)c(Cl)nn2)n1 [Example I-247, (1S,2S)-N-(6-chloro-5-(((6-cyclopropyl-8-(3-methyl-2,4-dioxoimidazolidin-1-yl)imidazo[1,2-a]pyridin-2-yl)methyl)amino)pyridazin-3-yl)-2-(4-methylpyrimidin-2-yl)cyclopropane-1-carboxamide]	0.001 to 0.01
O=C(NCc1cn(Cc2cn3cc(C4CC4)ccc3n2)nn1)[C@H]1C[C@@H]1c1cccc(Cl)c1 (racemic) [Example 588, rac-(1S*,2S*)-2-(3-chlorophenyl)-N-((1-((6-cyclopropylimidazo[1,2-a]pyridin-2-yl)methyl)-1H-1,2,3-triazol-4-yl)methyl)cyclopropane-1-carboxamide]	0.01 to 0.1
Cc1ccnc([C@H]2C[C@@H]2C(=O)Nc2cc(N[C@H](C)c3cn4cc(C5CC5)cc(N5C(=O)N(C)C(=O)C5(C)C)c4n3)nc(C)n2)n1 [Example 432, (1S,2S)-N-(6-(((R)-1-(6-cyclopropyl-8-(3,5,5-trimethyl-2,4-dioxoimidazolidin-1-yl)imidazo[1,2-a]pyridin-2-yl)ethyl)amino)-2-methylpyrimidin-4-yl)-2-(4-methylpyrimidin-2-yl)cyclopropane-1-carboxamide]	< 0.001
Cc1ccnc([C@H]2C[C@@H]2C(=O)Nc2cc(N[C@H](C)c3cn4cc(C(F)F)cc(N5CC(=O)N(C)C5=O)c4n3)ncn2)n1 [Example 417, (1S,2S)-N-(6-(((R)-1-(6-(difluoromethyl)-8-(3-methyl-2,4-dioxoimidazolidin-1-yl)imidazo[1,2-a]pyridin-2-yl)ethyl)amino)pyrimidin-4-yl)-2-(4-methylpyrimidin-2-yl)cyclopropane-1-carboxamide]	< 0.001
Cc1cc(NC(=O)[C@H]2C[C@@H]2c2nccc(C)n2)nc(N[C@H](C)c2cn3cc(C4CC4)cc(N4CC(=O)N(C)C4=O)c3n2)n1 [Example 440, (1S,2S)-N-(2-(((R)-1-(6-cyclopropyl-8-(3-methyl-2,4-dioxoimidazolidin-1-yl)imidazo[1,2-a]pyridin-2-yl)ethyl)amino)-6-methylpyrimidin-4-yl)-2-(4-methylpyrimidin-2-yl)cyclopropane-1-carboxamide]	< 0.001
O=C(Nc1cc(Cc2cn3cc(C4CC4)ccc3n2)ncn1)[C@H]1C[C@@H]1c1cccc(Cl)c1 (racemic) [Example 587, rac-(1S*,2S*)-2-(3-chlorophenyl)-N-(6-((6-cyclopropylimidazo[1,2-a]pyridin-2-yl)methyl)pyrimidin-4-yl)cyclopropane-1-carboxamide]	0.1 to 1
C#Cc1cccc([C@H]2C[C@@H]2C(=O)Nc2cc(N3C[C@@H](O)C[C@@H]3c3cn4cc(C5CC5)ccc4n3)ncn2)c1 [Example 486, (1S,2S)-N-(6-((2R,4S)-2-(6-cyclopropylimidazo[1,2-a]pyridin-2-yl)-4-hydroxypyrrolidin-1-yl)pyrimidin-4-yl)-2-(3-ethynylphenyl)cyclopropane-1-carboxamide]	0.001 to 0.01
Cc1ccnc([C@H]2C[C@@H]2C(=O)Nc2cc(O[C@@H](C)c3cn4cc(C5CC5)cc(N5CC(=O)N(C)C5=O)c4n3)cnn2)n1 (single isomer, unassigned) [Example 41]	0.01 to 0.1
C[C@H]1[C@H](C(=O)Nc2cc(NCc3cn4cc(C5CC5)ccc4n3)ncn2)[C@H]1c1cccc(Cl)c1 (single isomer, unassigned) [Example 505, (1R*,2R*,3S*)-2-(3-chlorophenyl)-N-(6-(((6-cyclopropylimidazo[1,2-a]pyridin-2-yl)methyl)amino)pyrimidin-4-yl)-3-methylcyclopropane-1-carboxamide]	0.01 to 0.1
Cc1ccnc([C@H]2C[C@@H]2C(=O)Nc2cc(N[C@H](C)c3cn4cc(C5CC5)cc(N5CC6(COC6)N(C)C5=O)c4n3)nc(C)n2)n1 [Example 435, (1S,2S)-N-(6-(((R)-1-(6-cyclopropyl-8-(5-methyl-6-oxo-2-oxa-5,7-diazaspiro[3.4]octan-7-yl)imidazo[1,2-a]pyridin-2-yl)ethyl)amino)-2-methylpyrimidin-4-yl)-2-(4-methylpyrimidin-2-yl)cyclopropane-1-carboxamide]	< 0.001

Same assay, conditions: comparative compounds, 500 pM activated kallikrein format; read-out: Primary Dose Response Assay: Average EC50

SMILES	EC50 [µM]
O=C(N[C@H]1C[C@@H]1c1cccc(Cl)c1)c1cc(NCc2cn3cc(C4CC4)ccc3n2)ncn1	1 to 6
